Measurements: the supplement of paper PMC8253809

Legend:
DIPGX29 [1] = H3.3 K27M diffuse intrinsic pontine glioma line; assay: EC50 (inflection of fitted growth-inhibition curve) (log10 M)
In short: (§1)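 Patient-derived pHGG/DIPG cell lines and astrocyte controls were plated in 384-well plates coated with 1% Geltrex and dosed by pin tool with a 10-point threefold dilution series (mean top concentration 35 μM), in triplicate. Cells were exposed for 7 days (3 days for iAstro) at 37 °C and 5% CO2. CellTiter-Glo luminescence was log2-transformed, normalised per plate to % activity between negative (solvent) and positive control wells, and pooled. EC50 and maximal response (yFin) were taken from whichever three- or four-parameter log-logistic fit had the lowest AICc.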

DIPGX37 [2] = H3.3 K27M diffuse intrinsic pontine glioma line; assay: as above
In short: as §1

DIPGX7 [3] = H3.3 K27M diffuse intrinsic pontine glioma line; assay: as above
In short: as §1

HGGX42 [4] = H3.3 G34R paediatric high-grade glioma line; assay: as above
In short: as §1

SUDIPGXXI [5] = diffuse intrinsic pontine glioma line; assay: as above
In short: as §1

iAstro [6] = astrocyte control; assay: as above
In short: as §1

DIPGX29 [7] = assay: maximal growth inhibition (yFin) relative to DMSO / staurosporine; higher = more efficacious
In short: as §1

DIPGX37 [8] = assay: as above
In short: as §1

DIPGX7 [9] = assay: as above
In short: as §1

HGGX42 [10] = assay: as above
In short: as §1

SUDIPGXXI [11] = assay: as above
In short: as §1

iAstro [12] = assay: as above
In short: as §1

DIPGX29 [13] = assay: area under dose-response curve of % growth inhibition (log2 RLU vs DMSO / staurosporine), 1e-11 to 1e-4 M (% x log10 M); higher = more growth inhibition
In short: (§2)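 Patient-derived pHGG/DIPG cell lines and astrocyte controls were grown on 1% Geltrex-coated 384-well plates and exposed to a 10-point threefold dilution series (mean top concentration 35 μM), in triplicate. Exposure was 7 days (iAstro 3 days) at 37 °C, 5% CO2. CellTiter-Glo luminescence was log2-transformed and normalised per plate to % activity between solvent and positive controls. Area under the curve was taken by trapezoid rule from the fitted log-logistic curve, or from a smoothing spline when the sigmoid fit failed.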

DIPGX37 [14] = assay: as above
In short: as §2

DIPGX7 [15] = assay: as above
In short: as §2

DIPGX9 [16] = diffuse intrinsic pontine glioma line; assay: as above
In short: as §2

HABS [17] = astrocyte control; assay: as above
In short: as §2

HGGX2 [18] = paediatric high-grade glioma line; assay: as above
In short: as §2

HGGX39 [19] = paediatric high-grade glioma line; assay: as above
In short: as §2

HGGX42 [20] = assay: as above
In short: as §2

HGGX6 [21] = H3.3 G34R paediatric high-grade glioma line; assay: as above
In short: as §2

SUDIPGIV [22] = diffuse intrinsic pontine glioma line; assay: as above
In short: as §2

SUDIPGVI = diffuse intrinsic pontine glioma line; assay: as above
In short: as §2

SUDIPGXIII = diffuse intrinsic pontine glioma line; assay: as above
In short: as §2

SUDIPGXIX [23] = diffuse intrinsic pontine glioma line; assay: as above
In short: as §2

SUDIPGXVII [24] = diffuse intrinsic pontine glioma line; assay: as above
In short: as §2

SUDIPGXXI [25] = assay: as above
In short: as §2

iAstro [26] = assay: as above
In short: as §2

DIPGX9 [27] = assay: EC50 (inflection of fitted growth-inhibition curve) (log10 M)
In short: as §1

HABS [28] = assay: as above
In short: as §1

HGGX2 [29] = assay: as above
In short: as §1

HGGX39 [30] = assay: as above
In short: as §1

SUDIPGIV [31] = assay: as above
In short: as §1

SUDIPGXIX [32] = assay: as above
In short: as §1

SUDIPGXVII [33] = assay: as above
In short: as §1

DIPGX9 [34] = assay: maximal growth inhibition (yFin) relative to DMSO / staurosporine; higher = more efficacious
In short: as §1

HABS [35] = assay: as above
In short: as §1

HGGX2 [36] = assay: as above
In short: as §1

HGGX39 [37] = assay: as above
In short: as §1

SUDIPGIV [38] = assay: as above
In short: as §1

SUDIPGXIX [39] = assay: as above
In short: as §1

SUDIPGXVII [40] = assay: as above
In short: as §1

HGGX6 [41] = assay: EC50 (inflection of fitted growth-inhibition curve) (log10 M)
In short: as §1

HGGX6 [42] = assay: maximal growth inhibition (yFin) relative to DMSO / staurosporine; higher = more efficacious
In short: as §1

SMILES | EC50 (log10 M) (SUDIPGXXI [5]) | EC50 (log10 M) (iAstro [6]) | maximal growth inhibition (SUDIPGXXI [11]) | maximal growth inhibition (iAstro [12]) | area under dose-response curve (DIPGX29 [13]) | area under dose-response curve (DIPGX37 [14]) | area under dose-response curve (DIPGX7 [15]) | area under dose-response curve (DIPGX9 [16]) | area under dose-response curve (HABS [17]) | area under dose-response curve (HGGX2 [18]) | area under dose-response curve (HGGX39 [19]) | area under dose-response curve (HGGX42 [20]) | area under dose-response curve (HGGX6 [21]) | area under dose-response curve (SUDIPGIV [22]) | area under dose-response curve (SUDIPGVI) | area under dose-response curve (SUDIPGXIII) | area under dose-response curve (SUDIPGXIX [23]) | area under dose-response curve (SUDIPGXVII [24]) | area under dose-response curve (SUDIPGXXI [25]) | area under dose-response curve (iAstro [26]) | also measured
Fc1ccc(N2CCN(CCC3OCCc4ccccc43)CC2)cc1 (stereo not given) | -5.02 | -5.03 | 57.5% | 23.3% | 27.2 | 33.4 | 37.3 | 13.4 | 1.16 | 15.4 | 18.1 | 37.8 | 14.9 | 15.7 | 12.8 | 13.4 | 0 | 8.36 | 87.1 | 24 | EC50 (log10 M) (DIPGX29 [1]): -5.02; EC50 (log10 M) (DIPGX37 [2]): -4.97; EC50 (log10 M) (DIPGX7 [3]): -4.91; EC50 (log10 M) (HGGX42 [4]): -4.98; maximal growth inhibition (DIPGX29 [7]): 26.6%; maximal growth inhibition (DIPGX37 [8]): 34.9%; maximal growth inhibition (DIPGX7 [9]): 40.7%; maximal growth inhibition (HGGX42 [10]): 38.6%
O=C1NC(=O)C(c2cnc3ccccn23)=C1c1cn2c3c(cc(F)cc13)CN(C(=O)N1CCCCC1)CC2 | -6.42 | -5.34 | 112% | 45.8% | 42 | 24.1 | 6.78 | 64 | 199 | 27 | 70.9 | 72.1 | 30.8 | 300 | 6.26 | 6.37 | 37 | 16.9 | 277 | 66.3 | EC50 (log10 M) (DIPGX29 [1]): -4.49; EC50 (log10 M) (DIPGX37 [2]): -4.48; EC50 (log10 M) (DIPGX9 [27]): -4.66; EC50 (log10 M) (HABS [28]): -7.93; EC50 (log10 M) (HGGX2 [29]): -4.66; EC50 (log10 M) (HGGX39 [30]): -6.42; EC50 (log10 M) (HGGX42 [4]): -5.13; EC50 (log10 M) (SUDIPGIV [31]): -8.3; EC50 (log10 M) (SUDIPGXIX [32]): -5.7; EC50 (log10 M) (SUDIPGXVII [33]): -4.97; maximal growth inhibition (DIPGX29 [7]): 49.3%; maximal growth inhibition (DIPGX37 [8]): 52.1%; maximal growth inhibition (DIPGX9 [34]): 97.2%; maximal growth inhibition (HABS [35]): 50.7%; maximal growth inhibition (HGGX2 [36]): 40.7%; maximal growth inhibition (HGGX39 [37]): 35.2%; maximal growth inhibition (HGGX42 [10]): 60.7%; maximal growth inhibition (SUDIPGIV [38]): 69.8%; maximal growth inhibition (SUDIPGXIX [39]): 24.1%; maximal growth inhibition (SUDIPGXVII [40]): 22.3%
N=C(N)c1ccc(N=NNc2ccc(C(=N)N)cc2)cc1 [BERENIL] | -5.13 |  | 46.9% |  | 41.8 | 90.7 | 20.8 | 5.74 | 0.995 | 0 | 84.7 | 0 | 52.7 | 43.8 | 15.1 | 14.9 | 0 | 13.8 | 53.1 | 1.3 | EC50 (log10 M) (HGGX39 [30]): -5.18; EC50 (log10 M) (SUDIPGIV [31]): -5.18; maximal growth inhibition (HGGX39 [37]): 68.7%; maximal growth inhibition (SUDIPGIV [38]): 38.7%
Cc1nc(Nc2ncc(C(=O)Nc3c(C)cccc3Cl)s2)cc(N2CCN(CCO)CC2)n1 [DASATINIB] | -4.85 | -4.82 | 110% | 34.9% | 54.9 | 39.6 | 26.2 | 80 | 143 |  | 77.5 | 83.4 | 61.1 | 60.9 | 12 | 16.1 | 51.9 | 22 | 109 | 27.6 | EC50 (log10 M) (DIPGX7 [3]): -4.59; EC50 (log10 M) (DIPGX9 [27]): -4.85; EC50 (log10 M) (HGGX39 [30]): -5.3; EC50 (log10 M) (SUDIPGXIX [32]): -4.77; maximal growth inhibition (DIPGX7 [9]): 28.2%; maximal growth inhibition (DIPGX9 [34]): 64.4%; maximal growth inhibition (HGGX39 [37]): 41.3%; maximal growth inhibition (SUDIPGXIX [39]): 50.4%
C#Cc1cccc(Nc2ncnc3cc(OCCOC)c(OCCOC)cc23)c1 [ERLOTINIB] | -5.65 | -5.17 | 103% | 27.5% | 28.1 | 51.3 | 44.7 | 68.4 | 86.4 | 37.1 | 34.2 | 50 | 22.9 | 53 | 33.8 | 9.16 | 78.6 | 44.5 | 178 | 29.7 | EC50 (log10 M) (DIPGX29 [1]): -4.82; EC50 (log10 M) (DIPGX9 [27]): -5.14; EC50 (log10 M) (HABS [28]): -4.84; EC50 (log10 M) (HGGX2 [29]): -5.13; EC50 (log10 M) (HGGX39 [30]): -4.77; EC50 (log10 M) (HGGX42 [4]): -5.09; EC50 (log10 M) (HGGX6 [41]): -4.65; EC50 (log10 M) (SUDIPGXIX [32]): -5.24; EC50 (log10 M) (SUDIPGXVII [33]): -5.32; maximal growth inhibition (DIPGX29 [7]): 25.7%; maximal growth inhibition (DIPGX9 [34]): 53.6%; maximal growth inhibition (HABS [35]): 80.2%; maximal growth inhibition (HGGX2 [36]): 32.7%; maximal growth inhibition (HGGX39 [37]): 40.4%; maximal growth inhibition (HGGX42 [10]): 31.5%; maximal growth inhibition (HGGX6 [42]): 30.5%; maximal growth inhibition (SUDIPGXIX [39]): 62.6%; maximal growth inhibition (SUDIPGXVII [40]): 25.8%
